The subject of data set [1] is ovarian cancer patients with confirmed BRCA-1 mutations. The following applies: phase I, monotherapy, oral, preliminary data; cited from earlier work.
For data set [2], the system named is Capan-1 BRCA-2 mutated human pancreatic xenograft model. The following applies: for Toxicity: number of death animals. The procedure:
(§1) Balb, Nu/Nu male mice, from Harlan (Italy) or CD1 Nu/Nu female mice from CRI, were maintained in agreement with the European Communities Council Directive no. 86/609/EEC, in cages with paper filter cover, food and bedding sterilized and acidified water. Fragments of Capan-1 human pancreatic cancer tumors, MX-1 human breast cancer tumors and HCT-116 human colon carcinoma were implanted subcutaneously. KM-12 cells were grown in vitro and 3×106 in 0,2 ml were implanted subcutaneously. The treatment started when tumors were palpable.
(§2) Compounds of formula (I) were administered by oral route in a volume of 10 ml/kg at the indicated doses from day 1 to 12. Temozolomide was administered orally at the dose of 62.5 mg/kg for 5 days. When combined, compound of formula (I) was administered from day 1 to 12 and temozolomide from day 3 to day 7. Irinotecan was administered intravenous at the dose of 45 mg/kg 2 or 3 times every 4 days. When combined, compound of formula (I) was administered from day 1 to 8 or to 12 and irinotecan on day 3 and day 7 or and days 1, 5 and 9. Docetaxel was administered intravenously at the dose of 5 mg/kg once a week for three times. When combined, compound of formula (I) was administered from day 1 to 12 and docetaxel on days 1, 8 and 15.
(§3) Tumor growth and body weight were measured every 3 days. Tumor growth was assessed by caliper. The two diameters were recorded and the tumor weight was calculated according the following formula: length (mm)×width^2 /2. The effect of the antitumor treatment was evaluated as the delay in the onset of an exponential growth of the tumor (see for references Anticancer drugs 7:437-60, 1996). This delay (T-C value) was defined as the difference of time (in days) required for the treatment group (T) and the control group (C) tumors to reach a predetermined size (1 g). Toxicity was evaluated on the basis of number of death animals during the experiment.

For data set [3], the system named is A-375 human melanoma cell line. In words: In vitro combination cytotoxic activity, cell proliferation (CellTiterGlo), 6 days. It is filed as cell-based. The conditions noted are these: single agent. Here is the method:
Materials and methods. […] Drugs were added to the experimental culture, and incubations were carried out at 37° C. for 6 days in the dark. Serial dilution curves were prepared in medium by using a liquid handler Multiprobe II (PerkinElmer). Scalar doses of the compound of formula (I) and antineoplastic agents were added to the medium 24 hours after seeding. Drug solutions were prepared immediately before use. At the end of treatment, cell proliferation was determined by an intracellular adenosine triphosphate monitoring system (CellTiterGlo- Promega) using an Envision (PerkinElmer) reader. Inhibitory activity was evaluated comparing treated versus control data using the Assay Explorer (MDL) program. The dose inhibiting 50% of cell growth was calculated using sigmoidal interpolation curve.

The subject of data set [4] is KM-12 human colorectal cancer xenograft model pTEN mutated. Here is the method:
as §1, §2, §3

The subject of data set [5] is HCT-116 human colorectal cancer xenograft model. Here is the method:
as §1, §2, §3

The test system of data set [6] is MX-1 human breast cancer xenograft model BRCA-1 mutated. The following applies: MX-1 xenograft; for Toxicity: number of death animals. Here is the method: as §1, §2, §3
For data set [7], the system named is HCT-116 human colon cancer cell line. In words: In vitro combination cytotoxic activity, cell proliferation (CellTiterGlo), 6 days. It is filed as cell-based. The following applies: single agent. The procedure: (§4) Materials and methods. Exponentially growing human cancer cell line (MDA-MB-436, MDA-MB-468, A-375, HCT-116, KM-12) was seeded and incubated at 37° C. in a humidified 5% CO2 atmosphere. Drugs were added to the experimental culture, and incubations were carried out at 37° C. for 6 days in the dark. Serial dilution curves were prepared in medium by using a liquid handler Multiprobe II (PerkinElmer). Scalar doses of the compound of formula (I) and antineoplastic agents were added to the medium 24 hours after seeding. Drug solutions were prepared immediately before use. At the end of treatment, cell proliferation was determined by an intracellular adenosine triphosphate monitoring system (CellTiterGlo- Promega) using an Envision (PerkinElmer) reader. Inhibitory activity was evaluated comparing treated versus control data using the Assay Explorer (MDL) program. The dose inhibiting 50% of cell growth was calculated using sigmoidal interpolation curve.
On the technique in general: In ATP-based viability assays light output follows the ATP content of the culture.

Data set [8] relates to KM-12 human colon cancer cell line. Described as above. It is filed as cell-based. Here is the method: as §4
Setting [9] is: Capan-1, Table 8, Compound 1 100 mg/kg oral, days 1 to 12.
The mark [10] stands for this setting: Capan-1, Table 9, Compound 2 50 mg/kg oral, days 1 to 12.
[11] abbreviates: Compound 2 100 mg/kg oral, days 1 to 8 (footnote *).
Setting [12] is: docetaxel 5 mg/kg intravenous, days 1, 8 and 15.
[13] abbreviates: Capan-1, Table 8, temozolomide 62.5 mg/kg oral, days 3 to 7.
Where [14] appears, read: Capan-1, Table 9, temozolomide 62.5 mg/kg oral, days 3 to 7.

Where two headings read alike, the source gives them in different places.

By IC50 is commonly meant the concentration at which inhibition is half-maximal.

Regarding `O=C(c1cc(Cc2n[nH]c(=O)c3ccccc23)ccc1F)N1CCN(C(=O)C2CC2)CC1` [AZD2281], the partial responses in data set [1] was 4 out of 10.
As for `NC(=O)c1cccc2c1C(=O)N(C1CCN(C3CCC(F)(F)CC3)CC1)C2` [Compound 1, 2-[1-(4,4-difluorocyclohexyl)piperidin-4-yl]-3-oxo-2,3-dihydro-1H-isoindole-4-carboxamide], in data set [2] (setting [9]), the T-C is given as 5 days and the Toxicity is listed as 0/7.
Turning to `NC(=O)c1cc(F)cc2c1C(=O)N(C1CCN(C3CCC(F)(F)CC3)CC1)C2` [Compound 2, 2-[1-(4,4-difluorocyclohexyl)piperidin-4-yl]-6-fluoro-3-oxo-2,3-dihydro-1H-isoindole-4-carboxamide], the IC50 in data set [3] came out at 32.5 µM; in data set [7] (Homo sapiens) it was 14.1 µM; in data set [8] (Homo sapiens, KM12, single agent), 19.4 µM. Further, the T-C in data set [4] (KM-12 xenograft, Compound 2 50 mg/kg oral, days 1 to 12) was 1 days; in data set [5] (HCT-116 xenograft, Compound 2 50 mg/kg oral, days 1 to 8) it was 1 days; in data set [5] (HCT-116 xenograft, Compound 2 100 mg/kg oral, days 1 to 8), 4 days; in data set [2] (setting [10]), 6 days; in data set [6] (setting [11]), 2 days. Further, the Toxicity in data set [4] (mouse, in vivo, po, 50 mg/kg) is given as 0/7; in data set [5] (mouse, in vivo, po, 50 mg/kg) it was 0/7; in data set [5] (mouse, in vivo, po, 100 mg/kg), 0/7; in data set [2] (setting [10]), 0/7; in data set [6] (setting [11]), 0/7.
As to `CC(=O)O[C@@]12CO[C@@H]1C[C@H](O)[C@@]1(C)C(=O)[C@H](O)C3=C(C)[C@@H](OC(=O)[C@H](O)[C@@H](NC(=O)OC(C)(C)C)c4ccccc4)C[C@@](O)([C@@H](OC(=O)c4ccccc4)[C@H]21)C3(C)C` [Docetaxel, docetaxel, reference compound], in data set [6] (setting [12]), the T-C was determined as 3 days and the Toxicity is listed as 0/7.
Consider `CCc1c2c(nc3ccc(OC(=O)N4CCC(N5CCCCC5)CC4)cc13)-c1cc3c(c(=O)n1C2)COC(=O)[C@]3(O)CC` [Irinotecan, irinotecan, reference compound], for which the T-C in data set [4] (KM-12 xenograft, irinotecan 45 mg/kg intravenous, days 3 and 7) came out at 1 days; in data set [5] (HCT-116 xenograft, irinotecan 45 mg/kg intravenous, days 1, 5 and 9) it was 16 days. For the same compound, the Toxicity in data set [4] (KM-12 xenograft, irinotecan 45 mg/kg intravenous, days 3 and 7, number of death animals) is on record as 0/7; in data set [5] (HCT-116 xenograft, irinotecan 45 mg/kg intravenous, days 1, 5 and 9, number of death animals), 0/7.
Consider `CCc1c2c(nc3ccc(O)cc13)-c1cc3c(c(=O)n1C2)COC(=O)[C@]3(O)CC` [SN-38, reference compound], for which the results for the IC50 in data set [7] and in data set [8] (single agent) were 0.0011 µM and 0.0015 µM, respectively.
For the compound `Cn1nnc2c(C(N)=O)ncn2c1=O` [Temozolomide, temozolomide, reference compound], in data set [3], the IC50 was 932 µM. Besides, the figures for the T-C in data set [2] (setting [13]) and in data set [2] (setting [14]) were 5 days and 9 days, respectively. Besides, the Toxicity in data set [2] (setting [13]) and in data set [2] (setting [14]) was 0/7 each time.

The values above are taken from patent US20130129841A1, “THERAPEUTIC COMBINATION COMPRISING A PARP-1 INHIBITOR AND AN ANTI-NEOPLASTIC AGENT” (NERVIANO MEDICAL SCIENCES S.r.l., priority 2010, published 2013).
